Source: patent US20240270821A1, “GIP/GLP1/GCG TRI-RECEPTOR AGONISTS AND USES THEREOF” (priority 2023, published 2024)
Starred links: 1 amine or outer side, 2 acyl side, 3 side chain; linkers in the order of their positions; H or OH if unused. Non-standard residues stand in square brackets, D forms with d. Groups on a side chain read outwards from the residue. No end group written: not given here. *: point of attachment. C20 diacid = O=C(O)CCCCCCCCCCCCCCCCCCC(=O)*; C18 diacid = O=C(O)CCCCCCCCCCCCCCCCC(=O)*; γGlu = O=C(O)[C@H](CCC(=O)[*:2])N[*:1]; αMe4Pal = C[C@](N)(Cc1ccncc1)C(=O)O; αMeY = C[C@](N)(Cc1ccc(O)cc1)C(=O)O; 4Pal = N[C@@H](Cc1ccncc1)C(=O)O; αMeL = CC(C)C[C@](C)(N)C(=O)O; Orn = NCCC[C@H](N)C(=O)O; AEEA = NCCOCCOCC(=O)O; Aib = CC(C)(N)C(=O)O

What was measured:
Type in all cases: cell-based
hGIPR [1] = molecular target: T1, hGIPR (Homo sapiens, UniProt P48546); test: Functional cAMP activity in the presence of 1% HSA; conditions: read-out: cAMP Rel EC50, hGIPR
T1 sequence (P48546 22-466): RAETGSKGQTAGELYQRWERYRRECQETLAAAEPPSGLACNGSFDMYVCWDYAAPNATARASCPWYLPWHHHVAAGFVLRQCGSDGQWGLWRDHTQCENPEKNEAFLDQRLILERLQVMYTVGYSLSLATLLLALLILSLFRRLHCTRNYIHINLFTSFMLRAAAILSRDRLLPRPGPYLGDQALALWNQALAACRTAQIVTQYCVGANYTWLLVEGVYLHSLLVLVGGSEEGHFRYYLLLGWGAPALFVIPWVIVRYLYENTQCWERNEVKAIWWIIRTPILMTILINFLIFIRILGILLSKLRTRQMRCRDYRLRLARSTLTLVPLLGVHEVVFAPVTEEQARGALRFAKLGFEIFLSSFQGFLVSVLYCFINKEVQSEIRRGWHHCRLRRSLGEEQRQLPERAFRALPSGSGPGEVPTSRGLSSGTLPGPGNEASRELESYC

hGLP-1R [2] = molecular target: T2, hGLP-1R (Homo sapiens, UniProt P43220); test: Functional cAMP activity in the presence of 1% HSA; conditions: read-out: cAMP Rel EC50, hGLP-1R
human GcgR = human GcgR (Homo sapiens, UniProt P47871); test: Functional cAMP activity in the presence of 1% HSA; conditions: read-out: cAMP Rel EC50, hGcgR
hGIPR [3] = molecular target: T1, hGIPR; test: Functional cAMP activation in the presence of 0.1% casein (no HSA); conditions: in the presence of 0.1% casein (no HSA); geometric mean; read-out: Relative cAMP EC50, hGIPR;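 as to Relative cAMP EC50, hGIPR: intracellular cAMP rise after 30 min at 37 °C read by HTRF against a standard curve, scaled between buffer alone (0%) and top control ligand concentration (100%), four-parameter fit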;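 as to Relative cAMP EC50, hGLP-1R: intracellular cAMP rise after 30 min at 37 °C read by HTRF, normalized between buffer only (0%) and maximal control ligand (100%), four-parameter variable-slope fit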;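 as to Relative cAMP EC50, hGcgR: intracellular cAMP rise after 30 min at 37 °C, read by HTRF against a cAMP standard curve, scaled from buffer only (0%) to maximal control ligand response (100%)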
hGLP-1R [4] = molecular target: T2, hGLP-1R; test: as above; conditions: in the presence of 0.1% casein (no HSA); geometric mean; read-out: Relative cAMP EC50, hGLP-1R
hGcgR = hGcgR (Homo sapiens, UniProt P47871); test: as above; conditions: in the presence of 0.1% casein (no HSA); geometric mean; read-out: Relative cAMP EC50, hGcgR;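 also: intracellular cAMP rise after 30 min at 37 °C, read by HTRF against a cAMP standard curve, scaled from buffer only (0%) to maximal control ligand response (100%)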
Sequence of hGcgR (P47871 26-477): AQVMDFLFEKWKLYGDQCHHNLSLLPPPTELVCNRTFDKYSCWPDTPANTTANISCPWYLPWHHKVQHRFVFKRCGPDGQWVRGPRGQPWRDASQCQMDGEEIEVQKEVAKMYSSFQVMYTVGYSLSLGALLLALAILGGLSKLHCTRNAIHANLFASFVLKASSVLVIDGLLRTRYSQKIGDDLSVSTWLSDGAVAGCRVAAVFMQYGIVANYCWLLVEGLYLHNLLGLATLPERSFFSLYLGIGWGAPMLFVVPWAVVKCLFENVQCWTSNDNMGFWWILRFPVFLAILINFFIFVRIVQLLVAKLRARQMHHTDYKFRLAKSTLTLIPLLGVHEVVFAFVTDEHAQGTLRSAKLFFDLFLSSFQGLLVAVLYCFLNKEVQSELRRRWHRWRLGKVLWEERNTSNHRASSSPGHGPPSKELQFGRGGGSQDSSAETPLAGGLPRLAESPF

T2 sequence (P43220 24-463): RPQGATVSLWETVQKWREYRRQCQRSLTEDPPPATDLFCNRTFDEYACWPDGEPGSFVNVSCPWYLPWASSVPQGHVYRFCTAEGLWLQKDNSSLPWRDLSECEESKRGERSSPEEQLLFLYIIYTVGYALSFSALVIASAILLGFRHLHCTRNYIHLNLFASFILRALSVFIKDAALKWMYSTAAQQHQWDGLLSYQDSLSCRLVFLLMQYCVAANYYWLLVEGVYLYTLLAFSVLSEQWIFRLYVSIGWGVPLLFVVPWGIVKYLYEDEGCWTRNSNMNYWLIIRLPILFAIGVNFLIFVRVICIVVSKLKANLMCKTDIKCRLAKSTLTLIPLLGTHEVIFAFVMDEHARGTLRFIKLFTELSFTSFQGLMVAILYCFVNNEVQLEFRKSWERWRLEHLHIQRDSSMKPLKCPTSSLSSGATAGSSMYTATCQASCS
Sequence of human GcgR (P47871 26-477): as the sequence (P47871 26-477) above

Substance	EC50 (hGIPR [1])	EC50 (hGLP-1R [2])	EC50 (human GcgR)	EC50 (hGIPR [3])	EC50 (hGLP-1R [4])	EC50 (hGcgR)
Y[Aib]QGTFTSDFS[Orn][αMeL]LDKK([γGlu-γGlu-C18 diacid])AQ[Aib]AFIEYLLEGGPSSGAPPPSGT-NH2 [Example 260]	12.4 nM	160 nM	162 nM	0.251 nM	3.85 nM	5.04 nM
Y[Aib]QGTFTSDYSI[αMeL]LDKQAAK([AEEA-AEEA-γGlu-C20 diacid])QFIEYLIA[Aib]GPSSGEPPPSEG-NH2 [Example 349]	52.6 nM	218 nM	2280 nM	0.152 nM	0.555 nM	5.12 nM
Y[Aib]QGTFTSDYSI[αMeL]LDKQAAK([AEEA-AEEA-γGlu-C20 diacid])QFVEWLLAGGPSSGEPPPGEG-NH2 [Example 320]	55.3 nM	328 nM	1170 nM	0.274 nM	2.58 nM	6.87 nM
Y[Aib]QGTFTSD[4Pal]SK[αMeL]LDKK([AEEA-γGlu-C18 diacid])AQ[Aib]AFIEYLIA[Aib]GESSGEPPPSGE-NH2 [Example 286]	11.5 nM	925 nM	228 nM	0.0845 nM	3.45 nM	2.2 nM
Y[Aib]QGTFTSD[4Pal]SK[αMeL]LDKK([AEEA-γGlu-C18 diacid])AQ[Aib]AFIEYLIE[Aib]GESSGEPPPSGE-NH2 [Example 281]	25.8 nM	295 nM	1370 nM	0.154 nM	1.6 nM	13.7 nM
Y[Aib]QGTFTSD[4Pal]SQ[αMeL]LDKK([AEEA-γGlu-C18 diacid])AQ[Aib]AFIEYLLE[dA]GPSSGAPPPSGS-NH2 [Example 820]	17.5 nM	299 nM	1270 nM	0.121 nM	2.78 nM	6.83 nM
Y[Aib]QGTFTSD[4Pal]SQ[αMeL]LDKK([AEEA-γGlu-C18 diacid])AQ[Aib]AFIEYLLE[dA]GPSSGAPPPSG[4Pal]-NH2 [Example 822]	18.1 nM	322 nM	2100 nM	0.186 nM	2.51 nM	11.6 nM
Y[Aib]QGTFTSD[4Pal]SQ[αMeL]LDKK([AEEA-γGlu-C18 diacid])AQ[Aib]AFIE[αMeY]LIEGGPSSGAPPPSGS-NH2 [Example 838]	23.2 nM	72.2 nM	3070 nM	0.225 nM	0.379 nM	20.7 nM
Y[Aib]QGTFTSD[4Pal]SQ[αMeL]LDKK([AEEA-γGlu-C18 diacid])AQ[αMe4Pal]AFIEWLIEGGPSSGAPPPSG[4Pal]-NH2 [Example 832]	18.6 nM	209 nM	1360 nM	0.187 nM	1.07 nM	9.1 nM
Y[Aib]QGTFTSD[4Pal]SQ[αMeL]LDKK([AEEA-γGlu-C18 diacid])AQ[αMe4Pal]AFIEYLIAGGPSSGEPPPSGS-NH2 [Example 828]	14.9 nM	114 nM	481 nM	0.149 nM	1.17 nM	3.58 nM
Y[Aib]QGTFTSD[4Pal]SQ[αMeL]LDKK([AEEA-γGlu-C18 diacid])AQ[αMe4Pal]AFIEYLIE[Aib]GPSSGAPPPSGS-NH2 [Example 810]	23.6 nM	256 nM	540 nM	0.156 nM	2.09 nM	3.3 nM
Y[Aib]QGTFTSD[4Pal]SQ[αMeL]LDKK([AEEA-γGlu-C18 diacid])AQ[αMe4Pal]AFIEYLIE[dA]GPSSGAPPPSGS-NH2 [Example 829]	22.4 nM	130 nM	325 nM	0.124 nM	1.15 nM	2.41 nM
Y[Aib]QGTFTSD[4Pal]SQ[αMeL]LDKK([AEEA-γGlu-C18 diacid])AQ[αMe4Pal]AFIE[αMeY]LIEGGPSSGAPPPEGS-NH2 [Example 852]	45.6 nM	182 nM	1230 nM	0.34 nM	0.871 nM	2.26 nM
